Like-named read-outs stand apart in the source and are kept apart here.
Experiments:
[1] = Cytotoxicity in SH-SY5Y cell line (MTT); assay type: cell-based; conditions: human; SH-SY5Y, 10, 30 and 100 μM, 24 h, MTT; read-out: CC50
Protocol: SH-SY5Y human neuroblastoma cells were seeded in 96-well clear multi-well plates (6 × 10^4 cells/well). Cells were treated with increasing concentrations of compounds (10, 30 and 100 μM) for 24 h. Thereafter, viability was assessed by the MTT method. Cytotoxic concentration to observe 50% mortality (CC50) values for compounds were interpolated from dose–response curves represented as percentage of cell death vs. concentration of compound, fitted by non-linear regression and data interpolated to value 50.
(§1) The tetrazolium ring of MTT can be cleaved by active dehydrogenases to produce a formazan precipitate. At the end of the experiments, MTT (SigmaAldrich, M2003) stock solution was added to each well to achieve a final concentration of 0.5 mg/mL. Cells were incubated for 2 h. Thereafter, culture media was removed, and DMSO was added to each well to dissolve the formazan precipitate. Finally, absorbance was measured in a microplate reader (SPECTROstar nano, BMG Labtech) at 570 nm. Absorbance obtained in basal conditions was considered as 100% cell viability.
In order to evaluate the potential pharmacological profile of new compounds, we first tested the potential neurotoxicity in the neuroblastoma SHSY5Y cell line. Toxicity was evaluated at increasing concentrations (10, 30 and 100 μM), and toxicity was measured as MTT reduction capability. CC50 values were calculated by non-linear regression of curves % survival vs. concentration (Supplementary Materials Figure S2). CGP37157 and previously studied racemic derivatives rac-3a and (rac,R)-3b were included as reference compounds. As previously described, LA is a non-neurotoxic compound at the concentrations texted.

[2] = system: SH-SY5Y neuroblastoma cells; assay: Neuroprotection against rotenone/oligomycin A oxidative stress in SH-SY5Y cells (MTT); assay type: cell-based, human; conditions: compound 1 μM 24 h, then compound + R/O (30/10 μM) 24 h; for % Survival: basal = 100, R/O alone 53.4
Protocol: Human neuroblastoma SH-SY5Y cells were plated in 96-well clear multi-well plates (6 × 10^4 cells/well). The potential neuroprotective activity of compounds against OS was evaluated using the rotenone (30 μM) (SigmaAldrich, R8875) and oligomycin A (10 μM) (SigmaAldrich, 75351) (R/O) toxic mixture. Neuroprotection activity against Tau hyperphosphorylation was evaluated by using the okadaic acid (20 nM) model. Cells were pre-incubated with each compound (1 µM) for 24 h, and then treatments were removed and cells were incubated with compounds (1 µM) in the presence the corresponding toxic for additional 24 h. At the end of the experiments, viability was determined by the MTT method. Data were normalized from cell death induced by the toxic stimuli (considered as 100% cell death). Then, the protection percentages were calculated by subtracting from the death induced by toxic stimuli, the death in the presence of the compound.
as §1
Thus, we selected a pre-incubation protocol to evaluate their potential neuroprotective capacity based on the NRF2-induction activity and direct antioxidant effect. Compound pre-incubation would induce the expression of antioxidant enzymes regulated by the phase II antioxidant response, thus promoting cells’ survival. The co-incubation period would also evaluate their capacity to trap free radicals produced by intoxicated mitochondria. SH-SY5Y neuroblastoma cells were treated with compounds (1 µM) during 24 h, and then cells were co-incubated with the corresponding compound at the same concentration and the R/O combination (30/10 µM) for additional 24 h. Melatonin, a well-known antioxidant natural neurohormone, was included as a positive control (1 µM). Previously reported racemic derivatives (rac-3a and (rac,R)-3b) and their precursors ((±)-6, R-6 and S-6) were included for comparative purposes at the same concentration.

[3] = parameters: method as in PMID 31693218; conditions: cited from earlier work; for DPPH Scavenging at 100 µM, %: compound 100 µM; for DPPH Scavenging at 1mM, %: compound 1 mM
[4] = system: NRF2; conditions: AREc32 cells, cited from earlier work; for CD (concentration required to double the specific luciferase activity): 24 h, Table S1, ref [3] of the supplement; for CD (concentration to double luciferase expression): previous results
[5] = system: primary glial cultures; parameters: method as in PMID 31693218; conditions: primary glial cultures stimulated by LPS; cited from earlier work
[6] = system: NRF2; assay: NRF2 induction, luciferase expression in AREc32 cell line; assay type: cell-based; conditions: AREc32 cells, 0.3, 3, 10 and 30 μM (LA: 0.1–0.6 mM), 24 h; mean ± SEM
Protocol: AREc32 cell line was kindly shared by Professor Roland Wolf (University of Dundee, UK). AREc32 cells were maintained in DMEM/glutamax/high glucose (Gibco, 61965-06, Madrid, Spain), supplemented with 1% penicillin–streptomycin (10,000 units) (SigmaAldrich, P4333, Madrid, Spain), geneticin (0.8 mg/mL) (Gibco, 11811-031) and 10% FBS (Gibco, 10270106), at 37 °C in a 5% CO2 air atmosphere. Cells were used from passage 4 to 18, and mycoplasma contamination was tested every 4 weeks. AREc32 cells were seeded in 96-well white plates (2 × 10^4 cells/well) for 24 h. Thereafter, cells were treated with each compound (0.3, 3, 10 and 30 µM) in duplicate for 24 h. Non-treated cells were included as basal luciferase expression and tert-butylhydroquinone (TBHQ, 10 μM) as positive control in each plate. Luciferase expression was evaluated by using the Luciferase Assay System (Promega, E1483, Madrid, Spain) by luminescence in an Orion II microplate luminometer (Berthold, Germany). Luciferase activity increase was normalized to basal conditions considered as 1. CD values (concentration required to double the luciferase activity) were calculated from dose–response curves of luciferase fold induction vs. compound concentration, fitted by non-linear regression and data interpolated to value 2.
To evaluate the influence of both stereogenic centers in the NRF2 induction capacity of aza-CGP37157-LA hybrids, we used the AREc32 cell line model by analyzing luciferase expression upon treatment with NRF2 inducers. AREc32 cells were exposed to increasing concentrations of tested compounds 7a–d (0.3, […], 10 and 30 μM) during 24 h; thereafter, luciferase expression was evaluated by luminescent assay to calculate the corresponding CD value (concentration to double luciferase expression). […] TBHQ was included as a positive control, and CGP37157, S- and R-LA, rac-3a and (rac,R)-3b and precursors derivatives (R-6 and S-6) were included for comparative purposes. […] Once R-LA is reduced, it might activate the phase II antioxidant response by acting as pro-oxidant over key Cys residues at KEAP1 to generate the corresponding lipoyl-cystinyl disulphide.

[7] = system: BV2 microglial cells; assay: Nitrite production reduction in LPS-stimulated BV2 microglial cells (Griess); assay type: cell-based, mouse; conditions: 24 h pretreatment 0.3, 3, 10, 30 μM, then compound + LPS 100 ng/mL 18 h, Griess
Protocol: BV2 microglial cells were seeded at 2 × 10^4 cells/well and treated with compounds at increasing concentrations during 24 h in complete culture media. Then, treatments were removed, and BV2 cells were co-incubated with compounds and LPS (100 ng/mL) (O127:B8, SigmaAldrich, L3129) for additional 18 h in culture media supplemented with 1% FBS. Each plate included non-treated cells as basal nitrite production. Thereafter, nitrite production was determined by using the modified Griess assay. In brief, samples (150 μL) were mixed with DAPSONE (75 μL) (SigmaAldrich, A74807) and NEDA (75 μL) (SigmaAldrich, 33461), and the mixture was incubated at room temperature for 5 min. Light absorption was measured at 550 nm in a microplate reader (SPECTROstar nano, BMG Labtech). Basal nitrite production was referred to as 100% of nitrite production, and all data were normalized to the basal condition. Concentration needed to reduce nitrite production to 50% was calculated from graphical representation of percentage of nitrite production vs. compound concentration, and data were fitted by non-linear regression and interpolated to 50%.
Chronic neuroinflammation is considered a key pathological event in the early stages of AD development. Among immune cells present at CNS, microglia is related to host defense and tissue repair. Nonetheless, chronic neuroinflammation induced by an adverse environment of protein aggregates and exacerbated OS induces a neurotoxic activity of microglia that, finally, leads to neuronal death. […] To this end, we selected the BV2 microglial cell model stimulated by lipopolysaccharide (LPS), a TLR4 agonist that activates the pro-inflammatory response. CGP37157, R- and S-LA; analogue compounds rac-3a and (rac,R)-3b; and precursor derivatives 6 were included with comparative and reference purposes. Microglial BV2 cells were treated with increasing concentrations of the corresponding compound (0.3, 3, 10 and 30 µM) for 24 h following a pre-incubation protocol. Thereafter, treatments were exchanged by a combination of the corresponding compound at desired concentration and LPS (100 ng/mL) during 18 h. At the end of this period, nitrite production was evaluated by the Griess method as an indirect measurement of iNOS enzyme expression and BV2 activation.

[8] = system: mitochondrial lipoamide dehydrogenase; parameters: method as in PMID 8573188; conditions: cited from earlier work
[9] = system: SH-SY5Y cell line; parameters: method as in PMID 21989390; conditions: at the concentrations tested; cited from earlier work

Row | SMILES | CC50 at 24 h [1] | % Protection [2] | % Survival [2] | DPPH Scavenging at 100 µM, % [3] | DPPH Scavenging at 1mM, % [3] | CD (concentration required to double the specific luciferase activity) [4] | CD (concentration to double luciferase expression) [4] | reduction of nitrite production [5] | CD (concentration required to double the specific luciferase activity) [6] | IC50 [7] | rate of conversion to dihydrolipoic acid relative to S-LA [8] | neurotoxicity [9]
1 | O=C1CN(CCOC(=O)CCCC[C@@H]2CCSS2)C(c2ccccc2Cl)c2cc(Cl)ccc2N1 (mixture of isomers) [(rac,R)-3b] | 76.2 ± 4.8 µM | 59.3% | 72.9 ± 3.5% | 8.7 ± 5.1 [19] % | 30.7 ± 3.9 [19] % | 9.8 ± 1.6 µM | 9.8 ± 1.6 µM | not active | – | – | – | –
2 | O=C1CN(CCOC(=O)CCCCC2CCSS2)C(c2ccccc2Cl)c2cc(Cl)ccc2N1 (racemic) [rac-3a] | 97.1 ± 2.3 µM | 52.1% | 69.0 ± 5.6% | 15.1 ± 3.4 [19] % | 37.4 ± 3.8 [19] % | 14.8 ± 1.6 µM | 14.8 ± 1.6 µM | able to reduce nitrite production | – | – | – | –
3 | O=C(O)CCCC[C@@H]1CCSS1 [(R) -Lipoic acid, (R)-Lipoic acid, reference compound] | – | – | – | – | – | – | – | – | > 600 µM | > 30 µM | 28 times | –
4 | O=C(O)CCCCC1CCSS1 (centres unmarked) [LA, lipoic acid] | – | – | – | – | – | – | – | – | – | – | – | non-neurotoxic

Reference: article PMC8772772, “Enantioselective Synthesis and Pharmacological Evaluation of Aza-CGP37157–Lipoic Acid Hybrids for the Treatment of Alzheimer’s Disease” (Antioxidants, 2022)
